4 molecules from article PMC10363080, “Modulatory Effect of Pyrus pyrifolia Fruit and its Phenolics on Key Enzymes against Metabolic Syndrome: Bioassay-Guided Approach, HPLC Analysis, and In Silico Study” (Plant Foods for Human Nutrition (Dordrecht, Netherlands), 2023) can be followed below.

Read-outs that look alike come from different tables or passages of the source.

One test has as its target T1, α-glucosidase (Saccharomyces cerevisiae, UniProt P53341).
T1 construct: purchased Sigma
Description: biochemical. The note with it: isolated compounds, Table S7. As to the method: (§1) Phenolic acids and flavonoids used in HPLC analysis as well as all other reagents for biological investigations were obtained from Sigma Chemical Company […]
(§2) Inhibitory activity against key enzymes related to metabolic syndrome (MS) All assays were performed in 96-well plates. Stock solutions of the extract (100 mg/mL), fractions (100 mg/mL), and isolated compounds (1000 µM) were prepared. Tested samples that exceeded […]
(§3) inhibitory concentration (IC50). The percentage of enzyme inhibition was calculated according to […]
% Inhibition = (A−B) − (C−D) x 100
A is the activity of the enzyme without tested samples, B is the control of A with neither tested samples nor enzyme, C, and D denote the activity of the test solutions with and without the tested […]
α-Glucosidase inhibitory activity
α-Glucosidase inhibition assays were performed according to a previously described method.
The tested samples were mixed with glutathione, α-glucosidase solution (Saccharomyces cerevisiae, EC 3.2.1.20, Sigma) in phosphate buffer , and the chromogenic substrate p-nitrophenyl-D-glucopyranoside (pNPG). Tested samples (50 μL) were incubated with α-glucosidase (100 μL.
0.6 U mL−1) in the presence of phosphate buffer (0.1 M, pH 6.9) for 10 min at 37 °C. Fifty μL of […] pNPG in phosphate buffer (pH 6.9) was added, and the mixture was incubated again for 12 min at 37 °C. Enzyme activity was evaluated by measuring ρ-nitrophenol release from the ρNPG […]
Absorbance at 405 nm was measured. […]

The nature of test [1]: ABTS radical scavenging antioxidant assay. The arrangement: ABTS AA (%) antioxidant activity percentage: concentration or dose not given beside the values. The conditions noted are these: for ABTS antioxidant activity: Trolox equivalent per gram of sample, mean ± SD, n=3; for ABTS AA (%) antioxidant activity percentage: compared to ascorbic acid (=100). The procedure:
all of analytical grade. An electrothermal 9100 (UK) was used for the determination of melting points (uncorrected). A Jenway model 6800 spectrophotometer was utilized for recording UV spectra. A Tecan, microplate reader, ((Infinite F50, Switzerland)) was used to measure the absorbances. A Bruker NMR system was used for 1H-NMR (400 MHz) and 13C-NMR (100 MHz).
The NMR spectra were determined in CD3OH and DMSO-d6. Chemical shifts are given in δ (ppm) relative to the internal standard TMS. Phenolic acids and flavonoids used in HPLC analysis as well as all other reagents for biological investigations were obtained from Sigma Chemical Company […]
Determination of the antioxidant activity
2,2`-Azino-bis(3-ethylbenzothiazoline-6-sulfonic acid) (ABTS), ferric reducing antioxidant power (FRAP), and oxygen radical absorbance capacity (ORAC) assays were performed according to the previously published procedures. Ascorbic acid was used as a reference antioxidant […]
drug. […]

For another test, the target named is xanthine oxidase (XO) (Bos taurus, UniProt P80457). Description: Xanthine oxidase (XO) inhibitory activity. The note with it: isolated compounds, Table S7; read-out: Inhibition (IC50) XO. It is filed as biochemical. The procedure: all of analytical grade. […]
Sequence of xanthine oxidase (XO) (P80457 2-1332): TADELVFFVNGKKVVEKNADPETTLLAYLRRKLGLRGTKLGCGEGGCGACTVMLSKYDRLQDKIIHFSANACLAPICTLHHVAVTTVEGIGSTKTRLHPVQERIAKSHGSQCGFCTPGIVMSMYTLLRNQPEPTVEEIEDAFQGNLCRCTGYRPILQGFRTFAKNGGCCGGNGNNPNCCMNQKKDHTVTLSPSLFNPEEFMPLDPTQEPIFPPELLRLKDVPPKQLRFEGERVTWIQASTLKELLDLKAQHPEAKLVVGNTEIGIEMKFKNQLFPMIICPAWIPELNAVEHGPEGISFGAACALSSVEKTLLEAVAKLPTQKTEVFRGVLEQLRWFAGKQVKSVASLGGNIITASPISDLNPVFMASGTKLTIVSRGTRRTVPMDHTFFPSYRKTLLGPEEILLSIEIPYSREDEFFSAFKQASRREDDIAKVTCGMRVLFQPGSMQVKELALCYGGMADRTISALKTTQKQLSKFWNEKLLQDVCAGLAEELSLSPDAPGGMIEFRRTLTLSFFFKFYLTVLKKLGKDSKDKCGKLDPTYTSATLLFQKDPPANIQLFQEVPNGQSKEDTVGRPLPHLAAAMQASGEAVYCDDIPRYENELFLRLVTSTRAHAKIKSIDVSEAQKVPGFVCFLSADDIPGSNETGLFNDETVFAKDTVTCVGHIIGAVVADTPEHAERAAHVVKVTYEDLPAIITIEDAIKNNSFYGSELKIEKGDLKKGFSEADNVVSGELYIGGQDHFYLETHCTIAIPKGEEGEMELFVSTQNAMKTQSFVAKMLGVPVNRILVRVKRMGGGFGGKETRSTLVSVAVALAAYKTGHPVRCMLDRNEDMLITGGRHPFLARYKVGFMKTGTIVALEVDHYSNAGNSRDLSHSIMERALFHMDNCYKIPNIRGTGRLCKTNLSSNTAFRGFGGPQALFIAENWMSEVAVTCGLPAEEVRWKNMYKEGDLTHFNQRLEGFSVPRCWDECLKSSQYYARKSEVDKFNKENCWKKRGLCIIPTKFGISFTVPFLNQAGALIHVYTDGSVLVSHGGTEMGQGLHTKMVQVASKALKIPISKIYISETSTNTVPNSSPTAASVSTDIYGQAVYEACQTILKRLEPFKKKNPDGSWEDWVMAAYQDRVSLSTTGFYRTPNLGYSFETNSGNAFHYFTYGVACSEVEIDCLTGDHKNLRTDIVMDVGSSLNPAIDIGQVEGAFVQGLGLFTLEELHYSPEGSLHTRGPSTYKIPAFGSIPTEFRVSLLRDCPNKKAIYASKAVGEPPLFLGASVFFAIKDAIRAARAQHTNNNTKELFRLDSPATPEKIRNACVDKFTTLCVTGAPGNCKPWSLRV
as §1, §2, §3

The target in a further test is ACE1 (Homo sapiens, UniProt P12821). As to the kind of experiment: Angiotensin conversion enzyme (ACE) inhibitory activity (HHL substrate). The class given is biochemical. The note with it: isolated compounds, Table S7; read-out: Inhibition (IC50) ACE1. The procedure:
as §1, §2, §3
% Inhibition = (A−B) − (C−D) x 100 […]
Pancreatic lipase inhibitory activity […]

The mark [2] stands for this setting: Inhibition (IC50) α-Glucosidase.

T1 sequence (P53341 whole entry): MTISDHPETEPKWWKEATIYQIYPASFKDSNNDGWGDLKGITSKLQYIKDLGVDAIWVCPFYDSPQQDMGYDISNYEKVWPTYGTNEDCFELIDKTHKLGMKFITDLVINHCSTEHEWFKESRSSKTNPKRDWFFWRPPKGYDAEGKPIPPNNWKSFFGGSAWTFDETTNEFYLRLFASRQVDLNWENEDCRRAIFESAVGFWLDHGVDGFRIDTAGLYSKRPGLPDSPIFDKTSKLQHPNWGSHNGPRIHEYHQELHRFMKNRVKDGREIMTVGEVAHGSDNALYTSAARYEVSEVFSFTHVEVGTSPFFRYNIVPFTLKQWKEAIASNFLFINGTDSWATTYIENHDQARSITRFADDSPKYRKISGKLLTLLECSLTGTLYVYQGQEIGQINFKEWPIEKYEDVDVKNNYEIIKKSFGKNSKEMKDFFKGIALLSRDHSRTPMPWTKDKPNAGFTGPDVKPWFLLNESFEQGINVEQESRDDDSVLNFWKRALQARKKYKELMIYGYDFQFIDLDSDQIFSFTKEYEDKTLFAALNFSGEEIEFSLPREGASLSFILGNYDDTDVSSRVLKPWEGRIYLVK
Sequence of ACE1 (P12821 30-1232): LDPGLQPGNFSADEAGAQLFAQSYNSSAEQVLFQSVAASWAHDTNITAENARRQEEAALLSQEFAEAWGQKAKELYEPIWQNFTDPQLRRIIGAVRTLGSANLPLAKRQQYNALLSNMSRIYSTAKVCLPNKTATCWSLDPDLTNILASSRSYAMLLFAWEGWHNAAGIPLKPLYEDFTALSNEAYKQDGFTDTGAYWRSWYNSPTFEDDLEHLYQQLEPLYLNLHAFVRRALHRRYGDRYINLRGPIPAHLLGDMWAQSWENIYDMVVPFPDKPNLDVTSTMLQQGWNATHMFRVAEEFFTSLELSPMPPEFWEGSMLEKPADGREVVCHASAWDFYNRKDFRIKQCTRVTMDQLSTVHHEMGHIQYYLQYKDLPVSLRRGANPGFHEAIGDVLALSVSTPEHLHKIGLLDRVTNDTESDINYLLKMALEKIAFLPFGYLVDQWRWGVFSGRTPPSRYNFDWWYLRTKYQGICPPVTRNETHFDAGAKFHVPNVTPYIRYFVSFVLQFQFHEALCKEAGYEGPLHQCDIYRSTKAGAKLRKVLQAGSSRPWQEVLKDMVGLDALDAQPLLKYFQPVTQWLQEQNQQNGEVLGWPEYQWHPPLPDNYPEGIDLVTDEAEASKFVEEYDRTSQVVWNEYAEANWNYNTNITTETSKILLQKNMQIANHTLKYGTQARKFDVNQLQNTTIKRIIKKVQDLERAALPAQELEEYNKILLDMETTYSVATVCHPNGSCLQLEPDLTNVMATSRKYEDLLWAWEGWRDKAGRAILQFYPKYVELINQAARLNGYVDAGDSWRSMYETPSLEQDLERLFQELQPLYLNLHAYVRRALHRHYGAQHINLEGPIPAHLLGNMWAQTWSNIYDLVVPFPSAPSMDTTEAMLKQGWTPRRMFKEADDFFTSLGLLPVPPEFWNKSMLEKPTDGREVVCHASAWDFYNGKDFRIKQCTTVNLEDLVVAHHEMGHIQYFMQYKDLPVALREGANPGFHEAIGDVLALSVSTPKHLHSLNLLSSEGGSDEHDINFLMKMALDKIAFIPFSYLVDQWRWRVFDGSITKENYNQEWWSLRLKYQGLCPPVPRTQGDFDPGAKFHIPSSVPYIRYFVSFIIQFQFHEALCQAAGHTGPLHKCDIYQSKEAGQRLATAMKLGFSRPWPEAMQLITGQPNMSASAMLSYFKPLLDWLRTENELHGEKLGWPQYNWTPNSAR

One may read the IC50 as the midpoint of a concentration-inhibition curve. As to `O=c1c(O[C@@H]2O[C@H](CO)[C@@H](O)[C@H](O)[C@H]2O)c(-c2ccc(O)c(O)c2)oc2cc(O)cc(O)c12` [P2, isoquercitrin], half-maximal inhibition against α-glucosidase (setting [2]) (IC50) was put at 1120 ± 380 nM. Also, in test [1], the ABTS antioxidant activity was 240.75±0.28 μM TE/g and the “ABTS AA (%) antioxidant activity percentage” value stood at 83.66%.
For `COc1cc(-c2oc3cc(O)cc(O)c3c(=O)c2O[C@@H]2O[C@H](CO)[C@@H](O)[C@H](O)[C@H]2O)ccc1O` [P3, isorhamnetin-3-O-β-D-glucopyranoside], the figures for the IC50 on α-glucosidase (read-out: Inhibition (IC50) α-Glucosidase), on xanthine oxidase (XO) and at ACE1 were 1370 ± 860 nM, 3.56 ± 0.83 µM and 310 ± 860 nM, respectively. Moreover, the ABTS antioxidant activity in test [1] worked out at 229.71±0.38 μM TE/g. In test [1], the “ABTS AA (%) antioxidant activity percentage” value came to 79.82%.
As to `C[C@@H]1O[C@@H](OC[C@H]2O[C@@H](Oc3c(-c4ccc(O)c(O)c4)oc4cc(O)cc(O)c4c3=O)[C@H](O)[C@@H](O)[C@@H]2O)[C@H](O)[C@H](O)[C@H]1O` [P1, rutin], in test [1], the ABTS antioxidant activity was 180.29±1.08 μM TE/g and the “ABTS AA (%) antioxidant activity percentage” value was determined as 62.64%.
In turn, `O=C(O)/C=C/c1ccccc1` [P6, cinnamic acid] had an IC50 on α-glucosidase (setting [2]) of 750 nM. In test [1], the ABTS antioxidant activity is 250.28±0.21 μM TE/g and the “ABTS AA (%) antioxidant activity percentage” value was found to be 86.97%. Besides, the ABTS antioxidant activity in test [1] (listed as Cinnamic acid (P6)) is 250.28 ± 0.21 μM TE/g.
